Assay results taken from the METLIN SMRT retention time set (Domingo-Almenara et al. 2019).

Test: gradient 5% acetonitrile 3 min, to 50% in 2 min, to 85% in 15 min, held 3 min, 100 µL/min
Conditions: column: Zorbax Extend-C18 2.1 x 50 mm; eluents: water / acetonitrile, 0.1% formic acid
Outline: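 The system's dead and dwell volumes were 40 μL and 900 μL, with a Zorbax Extend-C18 column (2.1 × 50 mm, 1.8 μm) run at 100 μL/min in water and acetonitrile containing 0.1% formic acid each. Pure standards were analyzed in mixtures of ~100 molecules by HPLC–quadrupole time-of-flight mass spectrometry in positive and negative ionization mode. Retention time was assigned from computationally picked, manually inspected adduct peaks.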

RP-LC retention time [s]	Structure (SMILES)
888	COc1ccc(-c2noc(C3CC(=O)N(c4ccc(C)cc4)C3)n2)c(OC)c1 (stereo not given)
731	CCCN(CC1CCOC1)C(=O)Nc1c(F)cccc1F (stereo not given)
575	CCNc1cc(N2CCC(CCC(=O)NCc3c(C)nn(C)c3C)CC2)ncn1
705	Cc1nc(-c2ccccc2)sc1C(=O)NCCNC(=O)c1ccc(NC(=O)C2CC2)cc1
784	O=C([C@@H]1C[C@H](F)CN1S(=O)(=O)c1ccc(F)cc1)N1CCCCC1
812	CC(C)c1cccc(NC(=O)Cn2ncc3c(c2=O)N(C2CC2)C(=O)CS3)c1
650	Cc1ccc2nc(C(=O)N3CCN(c4ccc(F)cc4)CC3)cn2c1
757	N#Cc1ccc(C(=O)N2CCCC(COc3ccc(C(=O)NC4CC4)cc3)C2)cc1 (stereo not given)
701	Cc1cccn2cc(-c3ccc(NS(=O)(=O)c4ccc(Cl)cc4)cc3)nc12
950	COc1cccc(CNC(=O)C2(c3ccc(NC(=O)C(C)C)cc3)CCCCC2)c1
863	COc1ccc(OC)c(NC(=O)Nc2cc(F)c3nc(N4CCOCC4)ccc3c2)c1
733	C=CCn1c(C)c(CC(=O)NC(C)C)c(=O)n2nc(-c3ccccc3)nc12
759	Cc1ccccc1Oc1ccc(S(=O)(=O)NCCC(=O)O)cc1
824	COc1ccc(-c2csc(Nc3ncccn3)n2)cc1OC
944	Cc1sc(-c2nnc(C3CC3)o2)cc1NC(=O)Cc1ccccc1F
996	Cc1ccc(/C=C/S(=O)(=O)N2CC(c3nc(-c4cccs4)no3)C2)cc1
882	CCc1ccc(-c2nc(-c3ccc(-n4ccnc4)nc3)no2)cc1
970	Cc1cccc(NC(=O)N(C)CCc2noc(COc3cccc(C)c3)n2)c1
734	CCC(C(=O)N1CCN(c2ccccn2)CC1)n1ccc2cc(S(=O)(=O)N3CCCCC3)ccc21 (stereo not given)
568	CC(=O)N[C@@H]1CCNC[C@@H]1c1nc(-c2ccccc2)no1
1040	COc1cccc(NC(=O)Cn2nc3cc(C)nc(Nc4ccc(F)c(C)c4)n3c2=O)c1
908	O=C(Cn1cccc1-c1nnc(C2CC2)o1)Nc1ccc(Cl)cc1F

RP-LC retention time [s]	Structure (SMILES)
788	O=C(NC(Cc1ccccc1)c1nnc(N2CCCCCC2)o1)C1CC1 (stereo not given)
725	CCOc1ccc(C(=O)N2CCC3(C2)C(=O)Nc2ccccc23)cc1 (stereo not given)
782	Cc1ccc2[nH]c(C(=O)NC3CC3)cc2c1
971	O=C(NCCCc1ccccc1)c1nnc(-c2ccc(S(=O)(=O)N3CCCC3)cc2)o1
778	CCc1nc2c(NC(=O)NCc3ccccc3)cccn2n1
688	Cc1cc(C)n(Cc2c(C(=O)NCC3Cn4cccc4C(=O)N3C)noc2C)n1 (stereo not given)
556	CCc1nc(N)n(CC(=O)NCc2ccc3c(c2)OCO3)c(=O)c1C
804	COc1cccc2cc(C(=O)Nc3nc(C)cs3)oc12
938	Cn1nc(CNC(=O)c2cccc(Cl)c2)c2ccccc21
619	O=C(NCC1CC1)c1cccc(N2CCNC(c3ccccc3)C2)n1 (stereo not given)
677	COCc1c(C(=O)O)nnn1-c1ccc(OC)cc1
944	Cc1ccccc1S(=O)(=O)N1CCCC(C)(C(=O)NCc2ccccc2)C1 (stereo not given)
725	COCC(=O)N1CCCc2ccc(NC(=O)c3cc(C)oc3C)cc21
583	Cc1oc(C2CCC2)nc1C(=O)N1CCN(Cc2ccc3c(c2)OCO3)CC1
1060	COc1cccc(-c2noc(CN3C(=O)C(C)Oc4ccccc43)n2)c1 (stereo not given)
681	Cc1nc(-c2cccnc2)nc2c1CCC(=O)N2Cc1ccco1
760	Cc1cc2c(c(=O)n(-c3ccccc3)c(=O)n2CC(=O)Nc2ccc3c(c2)OCO3)n1C
802	COc1ccc(NC2=NS(=O)(=O)C(c3ccccc3)=C2C)cc1OC
593	Cc1c(C(=O)NCCOc2cccc3cccnc23)cnn1-c1ccccc1
639	Cn1nc(C(=O)N2CC(c3nc(-c4cccs4)no3)C2)ccc1=O
863	CNS(=O)(=O)c1cccnc1Nc1ccc(F)cc1
975	CCCn1nccc1-c1csc(S(=O)(=O)NC(C)(C)CC)c1

RP-LC retention time [s]	Structure (SMILES)
1020	O=C(c1ccc(F)c(F)c1)N1CCc2nc(-c3ccc(Cl)cc3)ncc2C1
764	O=C(Nc1cc(-c2ccccc2)nn1CCO)c1ccc2nsnc2c1
604	Fc1ccc(CN2CCC(N3CC4(CCCCC4)C3c3ccncc3)CC2)cc1F (stereo not given)
734	OC(COc1ccc(F)cc1)CN1CCN(c2cccc(Cl)c2)CC1 (stereo not given)
895	O=C(NCc1cccc(Br)c1)c1nc(Cn2c(=O)oc3ccccc32)no1
785	Cc1ccc2[nH]cc(CCN3CC(C(=O)Nc4nnc(C)s4)CC3=O)c2c1 (stereo not given)
645	Cc1ccc2cc(CCC(=O)N(C)Cc3cn(C)nc3C)c(=O)[nH]c2c1
756	COc1ccc(Cl)cc1NC(=O)NCCc1cn(C)c2ncccc12
741	Cn1cccc1Cc1nnc(SCC(=O)NCC2CCCO2)n1Cc1ccccc1 (stereo not given)
750	CC(=O)NC(CC(C)C)C(=O)NC(Cc1ccccc1)C(=O)CCl (stereo not given)
669	CCCn1c(C)cnc1C1CN(S(=O)(=O)c2cccc(Cl)c2)C1
683	Cc1ccc(NC(=O)NCC(c2cccnc2)c2c[nH]c3ccccc23)c(C)c1 (stereo not given)
855	CCN(C(=O)C1CCN(C(=O)c2cccc(F)c2)CC1)C1CCCCC1
768	N#CC1=C(N)Oc2c(ccc3cccnc23)C1c1ccccc1 (stereo not given)
586	COc1ccccc1N1CCN(C(=S)Nc2ccc3nc(N4CCN(C)CC4)cc(C)c3c2)CC1
1160	CCOc1ccccc1-c1nc(CN(c2ccccc2)S(=O)(=O)c2cccs2)c(C)o1
1020	O=C1CC(c2noc(-c3cc(F)ccc3Cl)n2)CN1c1ccc(F)cc1 (stereo not given)
735	COc1ccc(C(=O)N2CCC3(CC2)NC(=O)c2ccc(Cl)cc2N3)cc1
804	Cc1ccc2c(Nc3ccc(F)c(Cl)c3)c(-c3nc(C)no3)cnc2n1
583	CC(C)CCN1C[C@@H](CO)[C@H](c2nc(-c3cccnc3)no2)C1
860	COC(=O)c1cnc2nc(-c3ccccc3Cl)nn2c1C
618	COc1ccc(C)cc1NC(=O)Cn1c(N)nc(C)cc1=O

RP-LC retention time [s]	Structure (SMILES)
673	O=C(Cc1nc(-c2ccccn2)n[nH]1)Nc1cccc(Cl)c1
697	O=C(Nc1ccc(F)cc1)Nc1cccc(-c2ccc(N3CCOCC3)nn2)c1
636	COc1cc(-c2nc3cc(C)ccn3c2Nc2ccc3c(c2)OCCO3)ccc1O
1290	Cc1nc(N2CCN(c3ncccn3)CC2)nc2c1C(=O)CC(/C=C/c1ccccc1)C2 (stereo not given)
886	COc1ccc(OC)c(N2CC(c3nc(-c4ccc5c(c4)OCO5)no3)CC2=O)c1 (stereo not given)
1150	CC(C)Cc1noc(C2(F)CCN(S(=O)(=O)c3ccc(F)cc3F)CC2)n1
875	COc1ccc(C(C)NC(=O)c2cnn3c(-c4ccc5c(c4)OCO5)ccnc23)cc1OC (stereo not given)
733	O=C(CC1CCN(C(=O)c2ccc3oc(C4CC4)nc3c2)CC1)NCc1ccc2c(c1)OCO2
882	CC1CN(c2nc3ccccc3nc2SCC(=O)N2CCOCC2)CC(C)O1 (stereo not given)
975	CCCn1c(=O)sc2cc(S(=O)(=O)N3CCC(C(=O)NCc4cccc(C)c4)CC3)ccc21
740	O=C(NCc1cscn1)C1CCN(S(=O)(=O)c2ccc(Br)s2)CC1
618	CCOc1ccc(CNCCSc2nnnn2C)cc1Cl
864	CCCCNC(=O)C(C)n1nc(C)c2nn(-c3ccccc3)c(C)c2c1=O (stereo not given)
678	Cc1nn(C(C)C(=O)NCCCN(C)Cc2ccccc2)c(=O)c2nn(-c3ccccc3)c(C)c12 (stereo not given)
570	CCCN1C(=O)C2CCC(=O)N2c2ccc(C(=O)NCCCN3CCOCC3)cc21 (stereo not given)
828	O=C(c1cccc(OC(F)(F)F)c1)N1CCN(c2cc(-c3cccs3)[nH]n2)CC1
803	CC1CCN(C(=O)C2CCN(S(=O)(=O)c3cc(C(=O)N4CCCCC4)n(C)c3)CC2)CC1
1150	COc1ccc(C(=O)N2CC(F)(F)C[C@H]2COc2ccc3c(c2)CCC3)cn1
648	CC(=O)N1CCC(C(=O)Nc2cc(-c3nnc(C)o3)sc2C)CC1
1110	Cc1ccc(-c2coc(-c3ccc(NC(=O)NCc4ccco4)cc3)n2)c(C)c1
939	CCc1ccc(NC(=O)c2cn(-c3cc(-c4nc(CC)no4)ccn3)cn2)cc1

Structure (SMILES)	RP-LC retention time [s]
Cn1cnc([N+](=O)[O-])c1Sc1n[nH]c(N)n1	599
CC(C)(C)NC[C@H](O)COc1cccc2[nH]c(C#N)cc12	663
CCN1C(=O)c2ccccc2Oc2ccc(C(=O)N3CCC4(CC3)OCCO4)cc21	770
